According to patent publication US8513417B2, “Method for synthesis of nitroxyl radical” (Kyushu University, National University Corporation, priority 2008, dated 2013):

What was measured:
[1] = Reactivity of nitroxyl radical to hydroxyl radical (UV/H2O2, X-band ESR); assay type: physicochemical; details: nitroxyl radical 25 μM, H2O2 10 mM, UV 100 to 120 mW/cm^2, X-band ESR
Experimental: In order to examine reactivities of the following 3 types of TEMPO-based nitroxyl radical derivatives, in which substituents at position-2 and position-6 in one derivative are different from those in another derivative, to free radical:
[drawing 49] according to the method of Takeshita et al. (Biochimica et Biophysica Acta, 1573, 156-164 (2002)), the following procedure was carried out. Nitroxyl radical (25 μM) was mixed with H2O2 (10 mM), and thereafter a specific amount of the mixture was collected in a capillary and irradiated with UV (100 to 120 mW/cm^2) to generate OH radical. The reactivities thereof to the nitroxyl radical were examined using X-band ESR.

[2] = Reactivity of nitroxyl radical to ascorbic acid (decrease in ESR signal intensity over time); assay type: physicochemical; details: nitroxyl radical 10 to 50 μM, ascorbic acid 100 μM to 2 mM, X-band ESR
Experimental: It has been reported that nitroxyl radical also reacts with a reduction substance (Couet, W. R., Tetrahedron, 41(7), 1165-1172 (1985); Finkelstein, E., Biochimica et Biophysica Acta, 802, 90-98 (1984)). Therefore, the following procedure was carried out. After nitroxyl radical (10 to 50 μM) was mixed with ascorbic acid (100 μM to 2 mM), a specific amount of the mixture was collected in a capillary, and thereafter the measurement was started. Using X-band ESR, decrease in ESR signal intensity was observed over time, thereby examining the reactivity to ascorbic acid, which is a typical reduction substance in the living body.

Structure (SMILES) | melting point [°C] | reactivities to hydroxyl radical, rank order [1] | reactivities to ascorbic acid, rank order [2] | reactivity to ascorbic acid ([2]; FIG. 2)
CC(C)(C)C1CC(=O)CC(C(C)(C)C)N1 (stereo not shown) | 55.4 |  |  | 
[O]N1C2(CCOCC2)CC(=O)CC12CCOCC2 [Compound 3, 2,6-dispiro-1′,1″-dipyran-piperidone-1-oxyl] |  | Compound 1>Compound 3>Compound 2 | Compound 3>Compound 2>Compound 1 | very rapidly reacts with ascorbic acid
